Laboratory results published in PubChem BioAssay AID2060902 (Molecular Pharmacology Branch, DTP, NCI, 2025).

System: 485368-065-R3-J5-PDC spheroids with HUVEC/MSC, viability
Assay: Anticancer human tumor 485368-065-R3-J5-PDC patient-derived pancreatic carcinoma cell line growth inhibition [RAS]
Settings: for IC50: curve of first compound; for viability, T/C: stronger effect = lower value
In short: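 Tumour cells grown as complex spheroids with HUVEC endothelial cells and mesenchymal stem cells, treated with RAS pathway inhibitor combinations. Each agent spans half-log steps from near clinical Cmax, or 10 microM where Cmax is unknown.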

[1] = second compound 0.000949 µM, first compound 0.0316 µM
[2] = second compound 0.000949 µM, first compound 0.1 µM
[3] = second compound 0.000949 µM, first compound 0.316 µM
[4] = second compound 0.000949 µM, first compound 1 µM
[5] = second compound 0.000949 µM, first compound 3.16 µM
[6] = second compound 0.000949 µM, first compound 10 µM
[7] = second compound 0.003 µM, first compound 0.0316 µM
[8] = second compound 0.003 µM, first compound 0.1 µM
[9] = second compound 0.003 µM, first compound 0.316 µM
[10] = second compound 0.003 µM, first compound 1 µM
[11] = second compound 0.003 µM, first compound 3.16 µM
[12] = second compound 0.003 µM, first compound 10 µM
[13] = second compound 0.00949 µM, first compound 0.0316 µM
[14] = second compound 0.00949 µM, first compound 0.1 µM
[15] = second compound 0.00949 µM, first compound 0.316 µM
[16] = second compound 0.00949 µM, first compound 1 µM
[17] = second compound 0.00949 µM, first compound 3.16 µM
[18] = second compound 0.00949 µM, first compound 10 µM
[19] = second compound 0.03 µM, first compound 0.0316 µM
[20] = second compound 0.03 µM, first compound 0.1 µM
[21] = second compound 0.03 µM, first compound 0.316 µM
[22] = second compound 0.03 µM, first compound 1 µM
[23] = second compound 0.03 µM, first compound 3.16 µM
[24] = second compound 0.03 µM, first compound 10 µM
[25] = second compound 0.0949 µM, first compound 0.0316 µM
[26] = second compound 0.0949 µM, first compound 0.1 µM
[27] = second compound 0.0949 µM, first compound 0.316 µM
[28] = second compound 0.0949 µM, first compound 1 µM
[29] = second compound 0.0949 µM, first compound 3.16 µM
[30] = second compound 0.0949 µM, first compound 10 µM
[31] = second compound 0.3 µM, first compound 0.0316 µM
[32] = second compound 0.3 µM, first compound 0.1 µM
[33] = second compound 0.3 µM, first compound 0.316 µM
[34] = second compound 0.3 µM, first compound 1 µM
[35] = second compound 0.3 µM, first compound 3.16 µM
[36] = second compound 0.3 µM, first compound 10 µM
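Further: spheroids exposed to agents for seven days before readout.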

CC1(O)CCCC1n1c(=O)c(C(F)F)cc2cnc(NC3CCN(S(C)(=O)=O)CC3)nc21 (centres undefined) + CCn1c(-c2cc(N3CCN(C)CC3)cnc2C(C)OC)c2c3cc(ccc31)-c1csc(n1)CC(NC(=O)C1CC1C)C(=O)N1CCCC(N1)C(=O)OCC(C)(C)C2
IC50 (second compound 0.000949 µM): < 0.0316 µM | IC50 (second compound 0.003 µM): < 0.0316 µM | IC50 (second compound 0.00949 µM): < 0.0316 µM | IC50 (second compound 0.03 µM): < 0.0316 µM | IC50 (second compound 0.0949 µM): < 0.0316 µM | IC50 (second compound 0.3 µM): < 0.0316 µM | viability, T/C [1]: 32.3% | viability, T/C [2]: 24.5% | viability, T/C [3]: 18.9% | viability, T/C [4]: 21.9% | viability, T/C [5]: 27.9% | viability, T/C [6]: 14% | viability, T/C [7]: 18.5% | viability, T/C [8]: 15.5% | viability, T/C [9]: 13.4% | viability, T/C [10]: 11.9% | viability, T/C [11]: 14.7% | viability, T/C [12]: 9.44% | viability, T/C [13]: 14.6% | viability, T/C [14]: 12.9% | viability, T/C [15]: 11.6% | viability, T/C [16]: 10.3% | viability, T/C [17]: 11% | viability, T/C [18]: 8.01% | viability, T/C [19]: 11.8% | viability, T/C [20]: 9.04% | viability, T/C [21]: 9.94% | viability, T/C [22]: 9.99% | viability, T/C [23]: 9.98% | viability, T/C [24]: 8.86% | viability, T/C [25]: 7.96% | viability, T/C [26]: 8.33% | viability, T/C [27]: 7.56% | viability, T/C [28]: 9.28% | viability, T/C [29]: 11.6% | viability, T/C [30]: 8.42% | viability, T/C [31]: 7.72% | viability, T/C [32]: 7.59% | viability, T/C [33]: 7.36% | viability, T/C [34]: 7.64% | viability, T/C [35]: 9.08% | viability, T/C [36]: 7.54%

CCC(CC)c1cc(NC2CCC(N)C2)n2nccc2n1 (centres undefined) + CCn1c(-c2cc(N3CCN(C)CC3)cnc2C(C)OC)c2c3cc(ccc31)-c1csc(n1)CC(NC(=O)C1CC1C)C(=O)N1CCCC(N1)C(=O)OCC(C)(C)C2
IC50 (second compound 0.000949 µM): 1.05 µM | IC50 (second compound 0.003 µM): < 0.0316 µM | IC50 (second compound 0.00949 µM): < 0.0316 µM | IC50 (second compound 0.03 µM): < 0.0316 µM | IC50 (second compound 0.0949 µM): < 0.0316 µM | IC50 (second compound 0.3 µM): < 0.0316 µM | viability, T/C [1]: 42% | viability, T/C [2]: 36.8% | viability, T/C [3]: 56.3% | viability, T/C [4]: 72.7% | viability, T/C [5]: 3.44% | viability, T/C [6]: 5.24% | viability, T/C [7]: 23.8% | viability, T/C [8]: 24.9% | viability, T/C [9]: 32.9% | viability, T/C [10]: 38.9% | viability, T/C [11]: 3.26% | viability, T/C [12]: 6.21% | viability, T/C [13]: 15.9% | viability, T/C [14]: 21.2% | viability, T/C [15]: 23.5% | viability, T/C [16]: 35.6% | viability, T/C [17]: 2.54% | viability, T/C [18]: 5.71% | viability, T/C [19]: 14.5% | viability, T/C [20]: 14.5% | viability, T/C [21]: 20.1% | viability, T/C [22]: 30.4% | viability, T/C [23]: 2.68% | viability, T/C [24]: 6.01% | viability, T/C [25]: 8.49% | viability, T/C [26]: 11.9% | viability, T/C [27]: 15.1% | viability, T/C [28]: 30.3% | viability, T/C [29]: 3.16% | viability, T/C [30]: 6.24% | viability, T/C [31]: 8.25% | viability, T/C [32]: 12.6% | viability, T/C [33]: 14.8% | viability, T/C [34]: 25.4% | viability, T/C [35]: 2.42% | viability, T/C [36]: 4.74%
